We go through 15 compounds from patent US10472381B2, “Sialic acid derivatives” (Reinhard Brossmer, priority 2014, dated 2019).

Molecules are shown by their SMILES.

The first assay concerns the target T1, CD22 (Homo sapiens, UniProt P20273).
T1 construct: The soluble CD22 protein was expressed in the CHO-Lec1 cell line; made in house; host or cells: CHO-Lec1
T1 sequence (P20273 20-687 limits assumed): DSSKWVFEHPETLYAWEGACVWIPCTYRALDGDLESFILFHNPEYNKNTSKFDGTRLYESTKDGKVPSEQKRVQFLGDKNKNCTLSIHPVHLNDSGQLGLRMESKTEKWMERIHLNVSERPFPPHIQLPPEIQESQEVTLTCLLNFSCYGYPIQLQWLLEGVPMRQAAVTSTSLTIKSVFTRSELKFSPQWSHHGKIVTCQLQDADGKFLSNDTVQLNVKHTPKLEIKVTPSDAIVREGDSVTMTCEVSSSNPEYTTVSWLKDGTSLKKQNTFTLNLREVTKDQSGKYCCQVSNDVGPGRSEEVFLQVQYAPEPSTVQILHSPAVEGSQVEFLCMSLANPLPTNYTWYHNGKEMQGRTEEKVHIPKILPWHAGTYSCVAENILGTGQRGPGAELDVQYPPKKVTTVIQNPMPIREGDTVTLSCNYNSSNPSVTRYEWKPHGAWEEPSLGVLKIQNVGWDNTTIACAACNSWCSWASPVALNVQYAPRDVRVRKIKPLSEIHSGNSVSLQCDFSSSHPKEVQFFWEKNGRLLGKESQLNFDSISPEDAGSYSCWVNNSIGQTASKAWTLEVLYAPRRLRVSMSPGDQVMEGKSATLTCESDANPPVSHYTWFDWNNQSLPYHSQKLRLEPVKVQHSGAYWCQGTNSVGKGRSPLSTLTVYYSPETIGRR
In words: ELISA-based inhibition assay: inhibition of binding of soluble CD22 to immobilized IgM. Conditions: Table II; relative to reference compound 10 co-tested in the same assay (rIP = 1). Here is the method:
The biological activity of the substances was determined in an ELISA-based inhibition assay as described in “Eur. J. Immunol. 2012, 42, 2792-2802”. The sialic acid derivatives of the formula (I) inhibit the binding of soluble CD22 to immobilized IgM in proportion to their affinity for CD22. The soluble CD22 protein was expressed in the CHO-Lec1 cell line and isolated as described by “Eur. J. Immunol. 2012, 42, 2792-2802”. […] The increase in affinity is reported as rIP (relative inhibitory affinity).
(In general: In an ELISA, binding on a coated surface is turned into a signal by an enzyme label.)
With `CC(=O)N[C@@H]1[C@@H](NS(=O)(=O)c2cccc3c(N(C)C)cccc23)[C@H](O)[C@](OCCCCCC(=O)[O-])(C(=O)[O-])O[C@H]1[C@H](O)[C@H](O)CNC(=O)c1ccc(-c2ccccc2)cc1.[Na+].[Na+]` [Compound 65], the rIP turned out to be 0.17.

The same assay, now with this note: Table III; relative to reference compound 17 co-tested in the same assay (rIP = 1).
`CC(=O)N[C@H]1[C@H]([C@H](O)[C@H](O)CNC(=O)c2ccc(-c3ccccc3)cc2)O[C@@](OCCCCCC(=O)[O-])(C(=O)[O-])C[C@@H]1NC(=O)c1ccc(O)cc1.[Na+].[Na+]` [Compound 62] had a rIP of 1.7. On the same count and under the same terms, the figure for `COc1ccc(C(=O)N[C@H]2C[C@](OCCCCCC(=O)[O-])(C(=O)[O-])O[C@@H]([C@H](O)[C@H](O)CNC(=O)c3ccc(-c4ccccc4)cc3)[C@@H]2NC(C)=O)cc1.[Na+].[Na+]` [Compound 63] is 0.27; for `CC(=O)N[C@H]1[C@H]([C@H](O)[C@H](O)CNC(=O)c2ccc(-c3ccccc3)cc2)O[C@@](OCCCCCC(=O)[O-])(C(=O)[O-])C[C@@H]1NC(=O)c1ccc(C(F)(F)F)cc1.[Na+].[Na+]` [Compound 64] it is 1.2; for `CC(=O)N[C@H]1[C@H]([C@H](O)[C@H](O)CNC(=O)c2ccc(-c3ccccc3)cc2)O[C@@](OCCCCCC(=O)[O-])(C(=O)[O-])C[C@@H]1NC(=O)OCc1ccccc1.[Na+].[Na+]` [Compound 66] it is 1.3.

The same assay, now with this note: Table IV; relative to reference compound 66 co-tested in the same assay (rIP = 1).
Consider `CC(=O)N[C@H]1[C@H]([C@H](O)[C@H](O)CNC(=O)c2ccc(-c3ccccc3)cc2)O[C@@](OCCCCCC(=O)[O-])(C(=O)[O-])C[C@@H]1NC(=O)OCc1ccccc1.[Na+].[Na+]` [Compound 66], for which the rIP was found to be 1. On the same count and under the same terms, the figure for `CC(=O)N[C@H]1[C@H]([C@H](O)[C@H](O)CNC(=O)c2ccc(-c3ccc(O)cc3)cc2)O[C@@](OCCCCCC(=O)[O-])(C(=O)[O-])C[C@@H]1NC(=O)OCc1ccccc1.[Na+].[Na+]` [Compound 67] is 1.0; for `CC(=O)N[C@H]1[C@H]([C@H](O)[C@H](O)CNC(=O)c2ccc(-c3ccccc3F)cc2)O[C@@](OCCCCCC(=O)[O-])(C(=O)[O-])C[C@@H]1NC(=O)OCc1ccccc1.[Na+].[Na+]` [Compound 68] it is 0.76; for `COc1ccccc1-c1ccc(C(=O)NC[C@@H](O)[C@@H](O)[C@@H]2O[C@@](OCCCCCC(=O)[O-])(C(=O)[O-])C[C@H](NC(=O)OCc3ccccc3)[C@H]2NC(C)=O)cc1.[Na+].[Na+]` [Compound 69] it is 0.83.

For `CC(=O)N[C@H]1[C@H]([C@H](O)[C@H](O)CNC(=O)c2ccc(-c3cccs3)cc2)O[C@@](OCCCCCC(=O)[O-])(C(=O)[O-])C[C@@H]1NC(=O)OCc1ccccc1.[Na+].[Na+]` [Compound 70], the rIP is given as 0.88. On the same count and under the same terms, the figure for `CC(=O)N[C@H]1[C@H]([C@H](O)[C@H](O)CNC(=O)c2ccc(-c3cccs3)s2)O[C@@](OCCCCCC(=O)[O-])(C(=O)[O-])C[C@@H]1NC(=O)OCc1ccccc1.[Na+].[Na+]` [Compound 71] is 0.28. Still for that read-out and setting: next, `CC(=O)N[C@H]1[C@H]([C@H](O)[C@H](O)CNC(=O)Cc2ccc3ccccc3c2)O[C@@](OCCCCCC(=O)[O-])(C(=O)[O-])C[C@@H]1NC(=O)OCc1ccccc1.[Na+].[Na+]` [Compound 72]: 0.91. Same read-out and setting: next, `CC(=O)N[C@H]1[C@H]([C@H](O)[C@H](O)CNC(=O)c2cnc(-c3ccccc3)nc2)O[C@@](OCCCCCC(=O)[O-])(C(=O)[O-])C[C@@H]1NC(=O)OCc1ccccc1.[Na+].[Na+]` [Compound 73]: 0.23; `CC(=O)N[C@H]1[C@H]([C@H](O)[C@H](O)CNC(=O)c2ccc(-c3ccccc3)nc2)O[C@@](OCCCCCC(=O)[O-])(C(=O)[O-])C[C@@H]1NC(=O)OCc1ccccc1.[Na+].[Na+]` [Compound 74]: 0.20; `CC(=O)N[C@H]1[C@H]([C@H](O)[C@H](O)CNC(=O)c2ccc(Oc3ccccc3)cc2)O[C@@](OCCCCCC(=O)[O-])(C(=O)[O-])C[C@@H]1NC(=O)OCc1ccccc1.[Na+].[Na+]` [Compound 75]: 0.25.

The compound `CC(=O)N[C@H]1[C@H]([C@H](O)[C@H](O)CNC(=O)c2cccc3ccccc23)O[C@@](OCCCCCC(=O)[O-])(C(=O)[O-])C[C@@H]1NC(=O)OCc1ccccc1.[Na+].[Na+]` [Compound 76] showed a rIP of 0.35.
